The text below walks through data of ChEMBL document CHEMBL1201862, “PubChem BioAssay data set” (2004).

Each structure is given as a SMILES string.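 Test compounds were applied to cells in 96-well plates for 48 hours at 5 doses. At the GI50, growth is halved.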 Calls of active or inactive are those of the source. Cut-off read from the data, not from the text of the source: active = GI50 up to about 1.1 µM and inactive = higher.

Some test systems named below: K562; LOX IMVI; IGROV-1; SF-295; SF-268; SK-OV-3; SK-MEL-28; SK-MEL-5; U-251; A549; NCI-H226; OVCAR-8; EKVX; UACC-62; SNB-19; NCI-H23; NCI-H522; SW-620; SK-MEL-2; KM12.
Common to all, as to experiment: NCI anticancer screen, dose series, 48 h

As for `O=C1c2ccccc2N(O)C1(c1ccccc1)C1CCCC=C1N1CCOCC1` (stereo not given), the GI50 in the experiment with K562 is 39.8 µM (inactive); in the experiment with LOX IMVI, 71.1 µM (inactive); in the experiment on IGROV-1, > 100 µM (inactive); in the experiment on SF-295, > 100 µM (inactive); in the experiment on SF-268 it was 40.8 µM (inactive); in the experiment with SK-OV-3, > 100 µM (inactive). Moreover, the GI50 in the experiment on SK-MEL-28 is 83.8 µM (inactive); with SK-MEL-5, > 69.5 µM (inactive); in the experiment on U-251 it was 87.5 µM (inactive); in the experiment with A549, 50.4 µM (inactive); in the experiment with NCI-H226, 69.5 µM (inactive); with OVCAR-8, > 100 µM (inactive). The GI50 in the experiment on EKVX is 34.7 µM (inactive); in the experiment on UACC-62 it was 35.8 µM (inactive); in the experiment on SNB-19, 57.9 µM (inactive); in the experiment on NCI-H23, > 100 µM (inactive); with NCI-H522, 22.5 µM (inactive); in the experiment with SW-620, > 100 µM (inactive).

As for `O=c1nc(NC(c2ccccc2)(c2ccccc2)c2ccccc2)ccn1CCCl`, the GI50 is 21.8 µM (inactive) with K562; 17.1 µM (inactive) in the experiment with LOX IMVI; 19.3 µM (inactive) with IGROV-1; 20.6 µM (inactive) with SF-295; 17.2 µM (inactive) with SF-268; 15 µM (inactive) in the experiment on SK-MEL-28. For the same molecule, the GI50 in the experiment with U-251 was 15.3 µM (inactive); in the experiment with A549 it was 30 µM (inactive); with NCI-H226, 21.2 µM (inactive); in the experiment with OVCAR-8, 16.2 µM (inactive); with EKVX it was 26.9 µM (inactive); in the experiment with SNB-19, 15.1 µM (inactive). Besides, the GI50 in the experiment with SK-MEL-2 is 15.8 µM (inactive); in the experiment on NCI-H23 it was 23.2 µM (inactive); with KM12, 17.1 µM (inactive); in the experiment with NCI-H522 it was 22.8 µM (inactive); with SW-620, 24.1 µM (inactive).

With `O=[N+]([O-])c1ccc(N2N=C(c3ccc(NCc4nc5ccccc5[nH]4)cc3)CC2c2ccco2)cc1` (stereo not given), the GI50 in the experiment on K562 is 20.4 µM (inactive); in the experiment with LOX IMVI, 18.5 µM (inactive); in the experiment with IGROV-1 it was 33 µM (inactive); with SF-295 it was 23.6 µM (inactive); in the experiment on SF-268, 34.8 µM (inactive); with SK-OV-3, 82.2 µM (inactive). The GI50 is 37.4 µM (inactive) in the experiment on SK-MEL-28; 14.2 µM (inactive) in the experiment with SK-MEL-5; 29.8 µM (inactive) in the experiment with U-251; 34.8 µM (inactive) in the experiment on A549; 18.1 µM (inactive) with OVCAR-8; 19.5 µM (inactive) with UACC-62. Also, the GI50 in the experiment on SNB-19 was 23.4 µM (inactive); in the experiment on SK-MEL-2, > 10 µM (inactive); with NCI-H23, 19.9 µM (inactive); with KM12, 16.7 µM (inactive); with NCI-H522, 15.5 µM (inactive); in the experiment on SW-620, 34.7 µM (inactive).

As for `CC(=O)Nc1ccc(C(=O)NN2C(=O)C(Cl)/C2=C/c2ccco2)cc1` (stereo not given), the GI50 in the experiment with K562, with IGROV-1, in the experiment on SF-295, with SF-268, in the experiment with SK-OV-3 and in the experiment with SK-MEL-28 was > 100 µM (inactive) throughout. The GI50 with SK-MEL-5, in the experiment on U-251, in the experiment on A549, in the experiment on NCI-H226, with OVCAR-8 and in the experiment with UACC-62 was > 100 µM (inactive) in each case. Besides, the GI50 in the experiment with SNB-19, in the experiment with SK-MEL-2, in the experiment on NCI-H23, in the experiment on KM12, in the experiment on NCI-H522 and with SW-620 was > 100 µM (inactive) in each case.

On to `COc1ccc(CCn2cncn2)cc1`, for which the GI50 in the experiment with K562, with IGROV-1, in the experiment on SF-295, in the experiment with SF-268, in the experiment on SK-OV-3 and in the experiment with SK-MEL-28 was > 100 µM (inactive) in each case. In addition, the GI50 with SK-MEL-5, with U-251, with A549, in the experiment on NCI-H226, with EKVX and with UACC-62 was > 100 µM (inactive) throughout. Moreover, the GI50 in the experiment on SNB-19, in the experiment with NCI-H23, with KM12, in the experiment on NCI-H522 and in the experiment with SW-620 was > 100 µM (inactive) each time.

Turning to `Cc1cc(C(=O)NCCN(C)C)c2nc3ccccc3cc2c1`, the GI50 was 2.44 µM (inactive) with K562; 1.27 µM (inactive) with LOX IMVI; 2.39 µM (inactive) in the experiment on IGROV-1; 1.27 µM (inactive) with SF-295; 2.77 µM (inactive) with SF-268; 2.16 µM (inactive) with SK-OV-3. The GI50 in the experiment with SK-MEL-28 is 3.15 µM (inactive); with SK-MEL-5, 1.64 µM (inactive); in the experiment on U-251 it was 2.69 µM (inactive); in the experiment with A549 it was 0.867 µM (active); in the experiment on NCI-H226 it was 1.17 µM (inactive); in the experiment on OVCAR-8, 1.25 µM (inactive). The GI50 in the experiment on EKVX was 0.594 µM (active); in the experiment with UACC-62, 1.52 µM (inactive); in the experiment with SNB-19, 2.01 µM (inactive); in the experiment with SK-MEL-2, 2.69 µM (inactive); with NCI-H23, 2.3 µM (inactive); in the experiment with KM12, 2.94 µM (inactive). The GI50 with SW-620 was 0.889 µM (active).

Regarding `CC1CC/C(=C\c2ccc(N(C)C)cc2)C2=C1C(c1ccc(N(C)C)cc1)NC(=S)N2` (stereo not given), the GI50 in the experiment with K562, with LOX IMVI, in the experiment on IGROV-1, with SF-295, with SF-268 and in the experiment on SK-OV-3 was > 100 µM (inactive) in each case. The GI50 in the experiment with SK-MEL-28, with SK-MEL-5, in the experiment with U-251, in the experiment with NCI-H226, with OVCAR-8 and in the experiment on EKVX was > 100 µM (inactive) throughout. Moreover, the GI50 with UACC-62, in the experiment on SNB-19, with SK-MEL-2, in the experiment with NCI-H23, in the experiment on KM12 and in the experiment on SW-620 was > 100 µM (inactive) each time.

Take `CN1C(=O)CCC1c1ccc2c(c1)oc(=O)n2C` (stereo not given): the GI50 in the experiment on K562, with LOX IMVI, with IGROV-1, in the experiment with SF-295, in the experiment with SF-268 and with SK-OV-3 was > 100 µM (inactive) in each case. In addition, the GI50 in the experiment on SK-MEL-28, in the experiment with U-251, with A549, in the experiment with NCI-H226, in the experiment on OVCAR-8 and with EKVX was > 100 µM (inactive) throughout. Further, the GI50 in the experiment on UACC-62, in the experiment with SNB-19, in the experiment on SK-MEL-2, in the experiment on NCI-H23, in the experiment with KM12 and in the experiment with NCI-H522 was > 100 µM (inactive) in each case. Besides, the GI50 in the experiment on SW-620 was > 100 µM (inactive).

`CCN(CC)c1cccc2c1/C(=N/O)CCCC2`: the GI50 was 46.8 µM (inactive) in the experiment on K562; > 100 µM (inactive) in the experiment on LOX IMVI; 83.8 µM (inactive) in the experiment on SF-295; > 100 µM (inactive) with SF-268; > 100 µM (inactive) in the experiment on SK-OV-3; > 100 µM (inactive) in the experiment with SK-MEL-28. In addition, the GI50 was 70.8 µM (inactive) in the experiment with SK-MEL-5; > 100 µM (inactive) in the experiment on U-251; > 100 µM (inactive) in the experiment on A549; > 100 µM (inactive) in the experiment with NCI-H226; > 100 µM (inactive) in the experiment on OVCAR-8; > 100 µM (inactive) with EKVX. The GI50 with UACC-62, with SNB-19, with SK-MEL-2, with NCI-H23, in the experiment with KM12 and in the experiment on NCI-H522 was > 100 µM (inactive) throughout. In addition, the GI50 with SW-620 is > 100 µM (inactive).

Take `CC[C@H](O)[C@H](C)C=C1SCCCS1`: the GI50 with K562, with LOX IMVI, in the experiment with IGROV-1, in the experiment on SF-295, in the experiment with SF-268 and with SK-OV-3 was > 100 µM (inactive) in each case. Besides, the GI50 in the experiment on SK-MEL-28, with SK-MEL-5, in the experiment with U-251, with A549, in the experiment on NCI-H226 and in the experiment on OVCAR-8 was > 100 µM (inactive) throughout. For the same molecule, the GI50 with EKVX, in the experiment with UACC-62, in the experiment on SK-MEL-2, with NCI-H23, in the experiment with KM12 and in the experiment with NCI-H522 was > 100 µM (inactive) in each case. For the same molecule, the GI50 with SW-620 was > 100 µM (inactive).

`CCOC(=O)c1cc(Br)c(-c2cc(C)no2)[nH]1`: the GI50 in the experiment on LOX IMVI is 31.3 µM (inactive); in the experiment with SF-295 it was 31.1 µM (inactive); in the experiment with SF-268, 31.6 µM (inactive); in the experiment with SK-OV-3 it was 41.6 µM (inactive); with SK-MEL-28, 32.4 µM (inactive); in the experiment on SK-MEL-5, 21.7 µM (inactive). For the same molecule, the GI50 was 25.5 µM (inactive) in the experiment with U-251; 24.9 µM (inactive) in the experiment with A549; 31 µM (inactive) in the experiment on NCI-H226; 35.8 µM (inactive) with OVCAR-8; 34.8 µM (inactive) with EKVX; 35.2 µM (inactive) with UACC-62. Moreover, the GI50 is 80.4 µM (inactive) with SNB-19; 34.4 µM (inactive) in the experiment with SK-MEL-2; 24.4 µM (inactive) in the experiment on NCI-H23; 10.1 µM (inactive) in the experiment with KM12; 20.7 µM (inactive) in the experiment with NCI-H522; 30 µM (inactive) in the experiment with SW-620.
